“And” between values parts separate entries of the source, which are not always exact repeats. Equal values may be shown once.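 Protocol summary: plate cells (96-well), add compound at 5 concentrations, incubate 48 h, interpolate endpoints linearly. GI50 marks 50% less growth. TGI is the concentration that stops growth completely.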
Experiments:
Assay in all cases: growth of human tumour cells (NCI), 48 h
UACC-257 melanoma = test system: UACC-257 melanoma
SF-268 CNS = test system: SF-268 CNS
KM12 colon = test system: KM12 colon
HCT-116 colon = test system: HCT-116 colon
ACHN renal = test system: ACHN renal
A498 renal = test system: A498 renal
MALME-3M melanoma = test system: MALME-3M melanoma
UACC-62 melanoma = test system: UACC-62 melanoma
HL-60(TB) leukemia = test system: HL-60(TB) leukemia
LOX IMVI melanoma = test system: LOX IMVI melanoma
HT29 colon = test system: HT29 colon
SF-295 CNS = test system: SF-295 CNS
IGROV1 ovarian = test system: IGROV1 ovarian
U251 CNS = test system: U251 CNS
SNB-75 CNS = test system: SNB-75 CNS
BT-549 breast = test system: BT-549 breast
HOP-62 NSCLC = test system: HOP-62 NSCLC
SR leukemia = test system: SR leukemia
RXF 393 renal = test system: RXF 393 renal
SW-620 colon = test system: SW-620 colon
SN12C renal = test system: SN12C renal
HCC-2998 colon = test system: HCC-2998 colon
SK-MEL-28 melanoma = test system: SK-MEL-28 melanoma
SK-OV-3 ovarian = test system: SK-OV-3 ovarian
A549 NSCLC = test system: A549 NSCLC
M14 melanoma = test system: M14 melanoma
T-47D breast = test system: T-47D breast
SK-MEL-5 melanoma = test system: SK-MEL-5 melanoma
MDA-MB-231 breast = test system: MDA-MB-231 breast
OVCAR-8 ovarian = test system: OVCAR-8 ovarian
UO-31 renal = test system: UO-31 renal
DU-145 prostate = test system: DU-145 prostate
MDA-MB-435 = test system: MDA-MB-435
OVCAR-4 ovarian = test system: OVCAR-4 ovarian
NCI-H23 lung = test system: NCI-H23 lung
OVCAR-3 ovarian = test system: OVCAR-3 ovarian
NCI-H226 lung = test system: NCI-H226 lung
TK-10 renal = test system: TK-10 renal
K-562 leukemia = test system: K-562 leukemia
786-0 renal = test system: 786-0 renal
SK-MEL-2 melanoma = test system: SK-MEL-2 melanoma
RPMI-8226 leukemia = test system: RPMI-8226 leukemia
SF-539 CNS = test system: SF-539 CNS
HCT-15 colon = test system: HCT-15 colon
MCF7 breast = test system: MCF7 breast
CCRF-CEM leukemia = test system: CCRF-CEM leukemia
PC-3 prostate = test system: PC-3 prostate
CAKI-1 renal = test system: CAKI-1 renal
NCI-H522 lung = test system: NCI-H522 lung
EKVX NSCLC = test system: EKVX NSCLC
MOLT-4 leukemia = test system: MOLT-4 leukemia
NCI-H460 lung = test system: NCI-H460 lung
HOP-92 NSCLC = test system: HOP-92 NSCLC
MDA-N = test system: MDA-N
SNB-19 CNS = test system: SNB-19 CNS
NCI/ADR-RES ovarian = test system: NCI/ADR-RES ovarian
OVCAR-5 ovarian = test system: OVCAR-5 ovarian
COLO 205 colon = test system: COLO 205 colon

For COc1ccc2[nH]cc([C@@H]3C4CCC(C4)[C@H]3NCc3cccc(CN[C@H]4C5CCC(C5)[C@@H]4c4c[nH]c5ccc(OC)cc45)c3)c2c1, the TGI (UACC-257 melanoma) was 3150 nM and 2740 nM, the GI50 (SF-268 CNS) was 1230 nM and the TGI (SF-268 CNS) was 2520 nM and 2930 nM. The TGI (KM12 colon) was 950 nM and 1340 nM, the GI50 (HCT-116 colon) was 351 nM and the TGI (HCT-116 colon) was 1080 nM and 2020 nM. For the same molecule, the TGI (ACHN renal) was 2550 nM and 3160 nM, the TGI (A498 renal) was 3220 nM and 3250 nM and the TGI (MALME-3M melanoma) was 3320 nM and 3310 nM. The TGI (UACC-62 melanoma) was 3190 nM, the TGI (HL-60(TB) leukemia) was 453 nM and 503 nM and the GI50 (LOX IMVI melanoma) was 184 nM. For the same molecule, the TGI (LOX IMVI melanoma) was 328 nM and 605 nM, the TGI (HT29 colon) was 1810 nM and 630 nM and the TGI (SF-295 CNS) was 2970 nM and 3080 nM. The TGI (IGROV1 ovarian) was 2610 nM, the GI50 (U251 CNS) was 168 nM and 170 nM and the TGI (U251 CNS) was 329 nM and 324 nM. For the same molecule, the GI50 (SNB-75 CNS) was 785 nM, the TGI (SNB-75 CNS) was 2590 nM and 2030 nM and the TGI (BT-549 breast) was 3160 nM and 3180 nM. For the same molecule, the TGI (HOP-62 NSCLC) was 2890 nM and 2970 nM, the GI50 (SR leukemia) was 280 nM and the TGI (SR leukemia) was 780 nM and 1000 nM. For the same molecule, the TGI (RXF 393 renal) was 3100 nM and 2790 nM, the GI50 (SW-620 colon) was 177 nM and the TGI (SW-620 colon) was 333 nM and 627 nM. For the same molecule, the TGI (SN12C renal) was 3100 nM and 2930 nM, the TGI (HCC-2998 colon) was 530 nM and 842 nM and the GI50 (SK-MEL-28 melanoma) was 1670 nM and 1680 nM. The TGI (SK-MEL-28 melanoma) was 3050 nM and 3070 nM, the GI50 (SK-OV-3 ovarian) was 1600 nM and the TGI (SK-OV-3 ovarian) was 2940 nM and 2950 nM. For the same molecule, the TGI (A549 NSCLC) was 2640 nM and 2990 nM, the GI50 (M14 melanoma) was 423 nM and the TGI (M14 melanoma) was 1410 nM and 1500 nM. For the same molecule, the GI50 (T-47D breast) was 1330 nM, the TGI (T-47D breast) was 2950 nM and the GI50 (SK-MEL-5 melanoma) was 1250 nM. For the same molecule, the TGI (SK-MEL-5 melanoma) was 2520 nM and 2990 nM, the TGI (MDA-MB-231 breast) was 2420 nM and 2980 nM and the GI50 (OVCAR-8 ovarian) was 625 nM. For the same molecule, the TGI (OVCAR-8 ovarian) was 1860 nM and 2350 nM, the TGI (UO-31 renal) was 2850 nM and 2640 nM and the TGI (DU-145 prostate) was 3310 nM and 3080 nM. The TGI (MDA-MB-435) was 988 nM and 962 nM, the TGI (OVCAR-4 ovarian) was 2770 nM and 2750 nM and the TGI (NCI-H23 lung) was 3000 nM and 2930 nM. The TGI (OVCAR-3 ovarian) was 2890 nM and 3020 nM, the TGI (NCI-H226 lung) was 3640 nM and the TGI (TK-10 renal) was 2870 nM and 3030 nM. For the same molecule, the GI50 (K-562 leukemia) was 375 nM, the TGI (786-0 renal) was 1900 nM and 2000 nM and the TGI (SK-MEL-2 melanoma) was 2910 nM and 2990 nM. For the same molecule, the GI50 (RPMI-8226 leukemia) was 660 nM, the TGI (RPMI-8226 leukemia) was 1650 nM and 1260 nM and the TGI (SF-539 CNS) was 3210 nM and 2500 nM. For the same molecule, the TGI (HCT-15 colon) was 1950 nM and 2390 nM, the GI50 (MCF7 breast) was 805 nM and the TGI (MCF7 breast) was 2250 nM and 2860 nM. The TGI (CCRF-CEM leukemia) was 1080 nM, the TGI (PC-3 prostate) was 2930 nM and 2590 nM and the TGI (CAKI-1 renal) was 2790 nM and 3210 nM. The TGI (NCI-H522 lung) was 2480 nM and 2830 nM, the TGI (EKVX NSCLC) was 2910 nM and 2890 nM and the GI50 (MOLT-4 leukemia) was 1560 nM. The TGI (MOLT-4 leukemia) was 3760 nM and 1290 nM, the TGI (NCI-H460 lung) was 556 nM and 1120 nM and the TGI (HOP-92 NSCLC) was 2600 nM and 2590 nM. The GI50 (MDA-N) was 776 nM, the TGI (MDA-N) was 2040 nM and 2200 nM and the TGI (SNB-19 CNS) was 2940 nM. For the same molecule, the TGI (NCI/ADR-RES ovarian) was 3040 nM and 2980 nM, the TGI (OVCAR-5 ovarian) was 3120 nM and 2880 nM and the GI50 (COLO 205 colon) was 206 nM. For the same molecule, the TGI (COLO 205 colon) was 1200 nM and 427 nM.

In the case of NC(=S)N/N=C1\NC(=O)/C(=C/c2ccc3c(c2)OCO3)S1, the TGI (UACC-257 melanoma) is reported as 76100 nM, the TGI (SF-268 CNS) is reported as 97300 nM and the TGI (KM12 colon) is reported as 55300 nM. The TGI (HCT-116 colon) was 85000 nM, the TGI (ACHN renal) was > 100000 nM and the TGI (A498 renal) was 30300 nM. The TGI (HL-60(TB) leukemia) was 63300 nM, the TGI (LOX IMVI melanoma) was 85200 nM and the TGI (HT29 colon) was 82900 nM. The TGI (SF-295 CNS) was > 100000 nM, the TGI (IGROV1 ovarian) was 49400 nM and the TGI (U251 CNS) was 57700 nM. The TGI (SNB-75 CNS) was 52600 nM, the TGI (BT-549 breast) was 84700 nM and the TGI (HOP-62 NSCLC) was 51500 nM. For the same molecule, the TGI (RXF 393 renal) was 52300 nM, the TGI (SW-620 colon) was 88800 nM and the TGI (SN12C renal) was > 100000 nM. For the same molecule, the TGI (HCC-2998 colon) was > 100000 nM, the TGI (SK-MEL-28 melanoma) was 78700 nM and the TGI (SK-OV-3 ovarian) was > 100000 nM. For the same molecule, the TGI (A549 NSCLC) was > 100000 nM, the TGI (M14 melanoma) was 68300 nM and the TGI (T-47D breast) was 71200 nM. It also gave a TGI (SK-MEL-5 melanoma) of 37700 nM, a TGI (MDA-MB-231 breast) of 77100 nM and a TGI (OVCAR-8 ovarian) of 78000 nM. For the same molecule, the TGI (UO-31 renal) was > 100000 nM, the TGI (DU-145 prostate) was 88000 nM and the TGI (MDA-MB-435) was 78100 nM. The TGI (OVCAR-4 ovarian) was 75800 nM, the TGI (NCI-H23 lung) was 54400 nM and the TGI (OVCAR-3 ovarian) was 45700 nM. The TGI (NCI-H226 lung) was 78700 nM, the TGI (TK-10 renal) was > 100000 nM and the TGI (786-0 renal) was > 100000 nM. The TGI (SK-MEL-2 melanoma) was 90100 nM, the TGI (SF-539 CNS) was > 100000 nM and the TGI (HCT-15 colon) was 82600 nM. The TGI (MCF7 breast) was > 100000 nM, the TGI (CAKI-1 renal) was 71800 nM and the TGI (EKVX NSCLC) was 56000 nM. The TGI (MOLT-4 leukemia) was 67300 nM, the TGI (NCI-H460 lung) was > 100000 nM and the TGI (HOP-92 NSCLC) was 56700 nM. The TGI (MDA-N) was 97900 nM, the TGI (SNB-19 CNS) was 53600 nM and the TGI (NCI/ADR-RES ovarian) was 78700 nM. For the same molecule, the TGI (OVCAR-5 ovarian) was 73100 nM and the TGI (COLO 205 colon) was 71300 nM.

Source: PubChem BioAssay (NCI)
